# Results as given in patent US20250002526A1, “PHARMACEUTICAL COMPOSITION HAVING ANTI-CANCER IMMUNOSTIMULATING EFFECT AND/OR IMMUNE CHECKPOINT INHIBITION POTENTIATING EFFECT” (KYUSHU UNIVERSITY, NATIONAL UNIVERSITY CORPORATION, priority 2021, published 2025).
# Counter-ions that a name gives are not always drawn. Like-named read-outs stand apart in the source and are kept apart here.
# Tested on: SULT2B1b-mediated CS production in E0771-SULT cells
# Assay: CS production inhibitory effect in E0771-SULT cells (LC/MS/MS quantification of CS)
# Assay type: cell-based, mouse
# Settings: for activity at 10 µM: relative to control (100%); for IC50: read-out: IC50 value (CS production)
# Experimental: CS in each human cancer tissue sample was quantified by a method described in NPL 2. To monitor the amounts of CS and/or oxysterol generated in E0771, 3LL, EG.7-OVA, and MC38 cells irrespective of the presence or absence of SULT2B1b expression, cells of each type were seeded in a 6-well plate at 5×10^5 cells/well, and the culture supernatant and cell pellet were collected after 24 hours. Subsequently, deuterium-labeled internal standard (IS) compounds (d7-CS [[…]] and d6-25-hydroxycholesterol) were added to fractions of the culture supernatant and cell pellet, each of which was subjected to extraction with 1 mL of extraction solvent (methanol/chloroform/water=5:2:2 [v/v/v]) to extract CS and oxysterol from the culture supernatant or cell pellet.
# Each sample was vigorously mixed with a vortex for 1 minute, and then ultrasonicated for 5 minutes. Thereafter, the sample was centrifuged at 16,000×g and 4° C. for 5 minutes, and the supernatant (700 μl) was collected in a clean tube. Into this, 235 μl of chloroform and 155 μl of water were added and mixed, and the resultant was then subjected to vortexing followed by centrifugation to separate into an aqueous layer and an organic layer. Subsequently, 200 μl of the lowermost layer was dried under a nitrogen flow.
# The dried sample was dissolved in 50 μl of methanol, and CS and oxysterol therein were quantified by liquid chromatography-tandem mass spectrometry (LC/MS/MS) with a triple quadrupole mass spectrometer (LCMS-8060; Shimadzu Corporation) equipped with an electrospray ionization (ESI) ion source in a multiple reaction monitoring (MRM) mode.
# • Column: Inertsil ODS-4 (2.1×150 mm; particle size: 3 μm; GL Sciences Inc.) • Column temperature: 40° C. • Flow rate: 0.3 ml/min • Mobile phase: (A) water/acetonitrile (1:2, v/v) containing 5 mM ammonium acetate (B) Methanol/Isopropanol (1:19, v/v) Containing 5 mM Ammonium Acetate • Gradient curve: 0 min→22 min: (B) 0%→100%, • 22 min→27 min: (B) 100%, • 27 min→27.1 min: (B) 100%→0%, • 27.1 min→30 min: (B) 0% • Injection volume: 5 μl • Mass spectrometry mode: positive and negative ion modes • Electrospray voltage: 4 kV in positive ion mode, −3.5 kV in negative ion mode • Nebulizer gas flow rate: 3.0 L/min • Drying gas flow rate: 10.0 L/min • Desolvation temperature: 250° C. • Heat block temperature: 400° C. • Detector voltage: 2.16 kV • Used were MRM mode and 2 msec of dwell time per channel.
# Absolute CS and oxysterol contents were calculated from calibration curves. MRM calibration curves were prepared with chromatographic peak areas for the analytes relative to peak areas for internal standards through three times of analysis for standard solutions.
# The CS production effects of test compounds (compounds 1 to 19, 21, 23, 25, and 27 to 32) were evaluated with the mouse breast cancer cell line E0771 expressing SULT2B1b (E0771-SULT cells).
# Specifically, as in the above description in experimental procedure (12), E0771-SULT cells were seeded in a 6-well plate at a proportion of 5×10^5 cells/well, and cultured in the presence or absence (control) of each test compound for 24 hours. After culturing, CS generated in E0771-SULT cells was quantified by LC/MS/MS according to the description in experimental procedure (12). The CS production capacity (% activity) of cells cultured in the presence of each test compound was evaluated from the percentage relative to the CS production level (control) (100%) in E0771-SULT cells cultured in the absence of the test compound, and the CS production inhibitory effect of the test compound was evaluated.
# [1] = Mus musculus, 24 h, read-out: CS production % activity at 10 μM, E0771-SULT cells, 24 hours, test compound 10 μM (Table 1)
# [2] = Mus musculus, 24 h, read-out: CS production % activity at 10 μM, E0771-SULT cells, 24 hours, third concentration column of Table 1, head again printed 10 μM
# [3] = Mus musculus, 24 h, read-out: CS production % activity at 20 μM, E0771-SULT cells, 24 hours, test compound 20 μM, relative to control without compound (100%)
# [4] = Mus musculus, 24 h, E0771-SULT cells, 24 hours, test compound 20 μM, relative to control without compound (100%), read-out: CS production % activity at 20 μM
structure (smiles),measurement,setting,value
"C[C@H](CCC(=O)O)[C@H]1CC[C@H]2[C@@H]3CC=C4C[C@@H](OC(=O)C(F)(F)F)CC[C@]4(C)[C@H]3CC[C@]12C [Compound 2, (R)-4-((3S,8S,9S,10R,13R,14S,17R)-10,13-dimethyl-3-(2,2,2-trifluoroacetoxy)-2,3,4,7,8,9,10,11,12,13,14,15,16,17-tetradecahydro-1H-cyclopenta[a]phenanthren-17-yl)pentanoic acid]",activity at 10 µM,[1],34%
same,activity at 10 µM,[2],52.5%
same,activity at 20 µM,[3],36.8%
same,IC50,Mus musculus,6 µM
"COC(=O)CC[C@@H](C)[C@H]1CC[C@H]2[C@@H]3CC=C4C[C@@H](OC)CC[C@]4(C)[C@H]3CC[C@]12C [Compound 5, methyl (R)-4-((3S,8S,9S,10R,13R,14S,17R)-3-methoxy-10,13-dimethyl-2,3,4,7,8,9,10,11,12,13,14,15,16,17-tetradecahydro-1H-cyclopenta[a]phenanthren-17-yl)pentanoate]",activity at 20 µM,[4],92.3%
"CC(CCC(=O)N1CCSCC1)C1CCC2C3CC=C4CC(O)CCC4(C)C3CCC12C [Compound 9, (R)-4-((3S,8S,9S,10R,13R,14S,17R)-3-hydroxy-10,13-dimethyl-2,3,4,7,8,9,10,11,12,13,14,15,16,17-tetradecahydro-1H-cyclopenta[a]phenanthren-17-yl)-1-thiomorpholinopentan-1-one]",activity at 20 µM,[3],87.2%
"C[C@H](CCC(=O)N1CCOCC1)[C@H]1CC[C@H]2[C@@H]3CC=C4C[C@@H](O)CC[C@]4(C)[C@H]3CC[C@]12C [Compound 11, (R)-4-((3S,8S,9S,10R,13R,14S,17R)-3-hydroxy-10,13-dimethyl-2,3,4,7,8,9,10,11,12,13,14,15,16,17-tetradecahydro-1H-cyclopenta[a]phenanthren-17-yl)-1-morpholinopentan-1-one]",activity at 20 µM,[3],87.4%
"C[C@H](CCC(=O)N1CCOCC1)[C@H]1CC[C@H]2[C@@H]3CC=C4C[C@H](n5cc(CN(C)C)nn5)CC[C@]4(C)[C@H]3CC[C@]12C [Compound 13, (R)-4-((3R,8S,9S,10R,13R,14S,17R)-3-(4-((dimethylamino)methyl)-1H-1,2,3-triazol-1-yl)-10,13-dimethyl-2,3,4,7,8,9,10,11,12,13,14,15,16,17-tetradecahydro-1H-cyclopenta[a]phenanthren-17-yl)-1-morpholinopentan-1-one]",activity at 20 µM,[3],65.8%
"C[C@H](CCC(=O)O)[C@H]1CC[C@H]2[C@@H]3CC[C@@H]4C[C@H](O)CC[C@]4(C)[C@H]3CC[C@]12C [Compound 14, (4R)-4-[(3R,5R,8R,9S,10S,13R,14S,17R)-3-hydroxy-10,13-dimethyl-2,3,4,5,6,7,8,9,11,12,14,15,16,17-tetradecahydro-1H-cyclopenta[a]phenanthren-17-yl]pentanoic acid]",activity at 20 µM,"Mus musculus, E0771-SULT cells, 24 hours, test compound 20 μM, relative to control without compound (100%), read-out: CS production % activity at 20 μM",31.5%
same,activity at 10 µM,"Mus musculus, E0771-SULT cells, 24 hours, third concentration column of Table 1, head again printed 10 μM, read-out: CS production % activity at 10 μM",62%
same,IC50,"Mus musculus, E0771-SULT cells",7.2 µM
"CC(=O)C1=CC[C@H]2[C@@H]3CC=C4CC(OC(=O)CCN5CCOCC5)CC[C@]4(C)[C@H]3CC[C@]12C (stereo partly drawn) [Compound 15, (8R,9S,10R,13S,14S)-17-acetyl-10,13-dimethyl-2,3,4,7,8,9,10,11,12,13,14,15-dodecahydro-1H-cyclopenta[a]phenanthren-3-yl3-morpholinopropanoate]",activity at 10 µM,[1],40.9%
same,activity at 10 µM,[2],63%
same,activity at 20 µM,[3],38.9%
same,IC50,Mus musculus,7.8 µM
"CC(=O)C1=CC[C@H]2[C@@H]3CC[C@H]4C[C@H](OC(=O)CCN5CCOCC5)CC[C@]4(C)[C@H]3CC[C@]12C [Compound 16, (3R,5S,8R,9S,10S,13S,14S)-17-acetyl-10,13-dimethyl-2,3,4,5,6,7,8,9,10,11,12,13,14,15-tetradecahydro-1H-cyclopenta[a]phenanthren-3-yl3-morpholinopropanoate]",activity at 10 µM,[1],49.9%
same,activity at 10 µM,[2],55.7%
same,activity at 20 µM,[3],42.3%
same,IC50,Mus musculus,9.6 µM
"COC(=O)C1CCCN1C(=O)CCC(=O)OCC(=O)C1(OC(C)=O)CCC2C3CCC4=CC(=O)CCC4(C)C3CCC21C [Compound 18, methyl (4-(2-8((8R,9S,10R,13S,14S,17R)-17-acetoxy-10,13-dimethyl-3-oxo-2,3,6,7,8,9,10,11,12,13,14,15,16,17-tetradecahydro-1H-cyclopenta[a]phenanthren-17-yl)-2-oxoethoxy)-4-oxobutanoyl)-L-prolinate]",activity at 10 µM,[1],60.6%
same,activity at 10 µM,[2],71.7%
same,activity at 20 µM,[3],54.8%
same,IC50,Mus musculus,16 µM
"C#CCOCCNC(=O)CC[C@@H](C)[C@H]1CC[C@H]2[C@@H]3CC=C4C[C@@H](OS(=O)(=O)O)CC[C@]4(C)[C@H]3CC[C@]12C [Compound 21, (3S,8S,9S,10R,13R,14S,17R)-10,13-dimethyl-17-((R)-5-oxo-5-((2-(prop-2-yn-1-yloxy)ethyl)amino)pentan-2-yl)-2,3,4,7,8,9,10,11,12,13,14,15,16,17-tetradecahydro-1H-cyclopenta[a]phenanthren-3-yl sulfate]",activity at 20 µM,[3],85.7%
"C#CCOCCOCCNC(=O)CC[C@@H](C)[C@H]1CC[C@H]2[C@@H]3CC=C4C[C@@H](OS(=O)(=O)O)CC[C@]4(C)[C@H]3CC[C@]12C [Compound 23, (3S,8S,9S,10R,13R,14S,17R)-10,13-dimethyl-17-((R)-5-oxo-5-((2-(2-(prop-2-yn-1-yloxy)ethoxy)ethyl)amino)pentan-2-yl)-2,3,4,7,8,9,10,11,12,13,14,15,16,17-tetradecahydro-1H-cyclopenta[a]phenanthren-3-yl sulfate]",activity at 20 µM,[3],70.1%
"C#CCOCCOCCOCCOCCNC(=O)CC[C@@H](C)[C@H]1CC[C@H]2[C@@H]3CC=C4C[C@@H](OS(=O)(=O)O)CC[C@]4(C)[C@H]3CC[C@]12C [Compound 25, (3S,8S,9S,10R,13R,14S,17R)-10,13-dimethyl-17-((R)-17-oxo-4,7,10,13-tetraoxa-16-azahenicos-1-yn-20-yl)-2,3,4,7,8,9,10,11,12,13,14,15,16,17-tetradecahydro-1H-cyclopenta[a]phenanthren-3-yl sulfate]",activity at 20 µM,[3],60.1%
"C#CCOCCOCCOCCOCCOCCOCCNC(=O)CC[C@@H](C)[C@H]1CC[C@H]2[C@@H]3CC=C4C[C@@H](OS(=O)(=O)O)CC[C@]4(C)[C@H]3CC[C@]12C [Compound 27, (3S,8S,9S,10R,13R,14S,17R)-10,13-dimethyl-17-((R)-23-oxa-4,7,10,13,16,19-hexaoxa-22-azaheptacos-1-yn-26-yl)-2,3,4,7,8,9,10,11,12,13,14,15,16,17-tetradecahydro-1H-cyclopenta[a]phenanthren-3-yl sulfate]",CS production % activity at 20 μM,"E0771-SULT cells, 24 hours, test compound 20 μM, relative to control without compound (100%)",59.0%
"C[C@]12CCC(OC(=O)CCN3CCOCC3)CC1=CC[C@@H]1[C@@H]2CC[C@]2(C)C(=O)CC[C@@H]12 (stereo partly drawn) [Compound 28, (8R,9S,10R,13S,14S)-10,13-dimethyl-17-oxo-2,3,4,7,8,9,10,11,12,13,14,15,16,17-tetradecahydro-1H-cyclopenta[a]phenanthren-3-yl 3-morpholinopropanoate]",activity at 20 µM,[4],42%
same,activity at 1 µM,"Mus musculus, 24 h, E0771-SULT cells, 24 hours, compound groups B-D, 1 μM, read-out: CS production % activity at 1 μM",37.8%
same,IC50,"Mus musculus, E0771-SULT cells",6.3 µM
